Results on ten compounds are retold here after patent US10004701B2, “Methods and compositions for treating infection” (UNIVERSITY OF ROCHESTER, priority 2012, dated 2018).

Counter-ions that a name gives are not always drawn. Like-named read-outs stand apart in the source and are kept apart here.

Holding throughout (experiment): AK assay 384-well format, Prestwick library screening
For experiment [1], the system named is E. faecium. It counts as cell-based, Enterococcus faecium. To be noted: Enterococcus faecium, 3 h, 50 μM final drug concentration.
The test system of experiment [2] is S. aureus strain USA300-0114. It counts as cell-based, Staphylococcus aureus. To be noted: Staphylococcus aureus, USA300, 3 h, 50 μM final drug concentration.
Experiment [3] has as its system K. pneumoniae. It counts as cell-based, Klebsiella pneumoniae. Conditions: Klebsiella pneumoniae, 3 h, 50 μM final drug concentration.
In experiment [4] the test system is A. baumannii strain 98-37-09. It counts as cell-based, Acinetobacter baumannii. Conditions: Acinetobacter baumannii, 983709, 3 h, 50 μM final drug concentration.
Experiment [5] concerns P. aeruginosa. It counts as cell-based, Pseudomonas aeruginosa. Conditions: Pseudomonas aeruginosa, 3 h, 50 μM final drug concentration.
For experiment [6], the system named is E. cloacae. It counts as cell-based, Enterobacter cloacae. To be noted: Enterobacter cloacae, 3 h, 50 μM final drug concentration.
In experiment [7] the test system is E. coli. It counts as cell-based, Escherichia coli. To be noted: Escherichia coli, 3 h, 50 μM final drug concentration.
The mark [8] stands for this setting: cutoff for positive-scoring molecules 3-fold increase, read-out: AK-based Prestwick Library Screening Results, E. faecium (fold increase in extracellular AK activity).
Setting [9] is: cutoff for positive-scoring molecules 3-fold increase, read-out: AK-based Prestwick Library Screening Results, S. aureus (fold increase in extracellular AK activity).
[10] abbreviates: cutoff for positive-scoring molecules 3-fold increase, read-out: AK-based Prestwick Library Screening Results, K. pneumoniae (fold increase in extracellular AK activity).
Setting [11] is: cutoff for positive-scoring molecules 3-fold increase, read-out: AK-based Prestwick Library Screening Results, A. baumannii (fold increase in extracellular AK activity).
The mark [12] stands for this setting: cutoff for positive-scoring molecules 3-fold increase, read-out: AK-based Prestwick Library Screening Results, P. aeruginosa (fold increase in extracellular AK activity).
The mark [13] stands for this setting: cutoff for positive-scoring molecules 3-fold increase, read-out: AK-based Prestwick Library Screening Results, E. cloacae (fold increase in extracellular AK activity).
The mark [14] stands for this setting: cutoff for positive-scoring molecules 3-fold increase, read-out: AK-based Prestwick Library Screening Results, E. coli (fold increase in extracellular AK activity).
The mark [15] stands for this setting: planktonic E. faecium, 384-well, cutoff for positive-scoring molecules 3-fold increase, read-out: AK-based Prestwick Library Screening Results: E. faecium (increase in extracellular AK activity).
Where [16] appears, read: planktonic S. aureus, 384-well, cutoff for positive-scoring molecules 3-fold increase, read-out: AK-based Prestwick Library Screening Results: S. aureus (increase in extracellular AK activity).
[17] abbreviates: planktonic K. pneumoniae, 384-well, cutoff for positive-scoring molecules 3-fold increase, read-out: AK-based Prestwick Library Screening Results: K. pneumoniae (increase in extracellular AK activity).
Setting [18] is: planktonic A. baumannii, 384-well, cutoff for positive-scoring molecules 3-fold increase, read-out: AK-based Prestwick Library Screening Results: A. baumannii (increase in extracellular AK activity).
Where [19] appears, read: planktonic P. aeruginosa, 384-well, cutoff for positive-scoring molecules 3-fold increase, read-out: AK-based Prestwick Library Screening Results: P. aeruginosa (increase in extracellular AK activity).
The mark [20] stands for this setting: planktonic E. cloacae, 384-well, cutoff for positive-scoring molecules 3-fold increase, read-out: AK-based Prestwick Library Screening Results: E. cloacae (increase in extracellular AK activity).
Where [21] appears, read: planktonic E. coli, 384-well, cutoff for positive-scoring molecules 3-fold increase, read-out: AK-based Prestwick Library Screening Results: E. coli (increase in extracellular AK activity).
The mark [22] stands for this setting: planktonic, cutoff for positive 3-fold increase, read-out: AK-based Prestwick Library Screening Results, E. faecium (fold increase in extracellular AK activity).
[23] abbreviates: planktonic, cutoff for positive 3-fold increase, read-out: AK-based Prestwick Library Screening Results, S. aureus (fold increase in extracellular AK activity).
[24] abbreviates: planktonic, cutoff for positive 3-fold increase, read-out: AK-based Prestwick Library Screening Results, K. pneumoniae (fold increase in extracellular AK activity).
Setting [25] is: planktonic, cutoff for positive 3-fold increase, read-out: AK-based Prestwick Library Screening Results, A. baumannii (fold increase in extracellular AK activity).
Setting [26] is: planktonic, cutoff for positive 3-fold increase, read-out: AK-based Prestwick Library Screening Results, P. aeruginosa (fold increase in extracellular AK activity).
Setting [27] is: planktonic, cutoff for positive 3-fold increase, read-out: AK-based Prestwick Library Screening Results, E. cloacae (fold increase in extracellular AK activity).
The mark [28] stands for this setting: planktonic, cutoff for positive 3-fold increase, read-out: AK-based Prestwick Library Screening Results, E. coli (fold increase in extracellular AK activity).
The mark [29] stands for this setting: planktonic, cutoff for positive-scoring molecules 3-fold increase, read-out: AK-based Prestwick Library Screening Results, E. faecium (fold increase in extracellular AK activity).
Where [30] appears, read: planktonic, cutoff for positive-scoring molecules 3-fold increase, read-out: AK-based Prestwick Library Screening Results, S. aureus (fold increase in extracellular AK activity).
Where [31] appears, read: planktonic, cutoff for positive-scoring molecules 3-fold increase, read-out: AK-based Prestwick Library Screening Results, K. pneumoniae (fold increase in extracellular AK activity).
The mark [32] stands for this setting: planktonic, cutoff for positive-scoring molecules 3-fold increase, read-out: AK-based Prestwick Library Screening Results, A. baumannii (fold increase in extracellular AK activity).
[33] abbreviates: planktonic, cutoff for positive-scoring molecules 3-fold increase, read-out: AK-based Prestwick Library Screening Results, P. aeruginosa (fold increase in extracellular AK activity).
Where [34] appears, read: planktonic, cutoff for positive-scoring molecules 3-fold increase, read-out: AK-based Prestwick Library Screening Results, E. cloacae (fold increase in extracellular AK activity).
[35] abbreviates: planktonic, cutoff for positive-scoring molecules 3-fold increase, read-out: AK-based Prestwick Library Screening Results, E. coli (fold increase in extracellular AK activity).

As for `CO[C@@]1(NC(=O)CSCC#N)C(=O)N2C(C(=O)O)=C(CSc3nnnn3C)CS[C@@H]21` [Cefmetazole sodium salt], the fold induction at 50 µM amounted to 1.4 in experiment [1] (setting [8]); 5 in experiment [2] (setting [9]); 4.6 in experiment [3] (setting [10]); 1.4 in experiment [4] (setting [11]); 1 in experiment [5] (setting [12]); 1.6 in experiment [6] (setting [13]). The fold induction at 50 µM in experiment [7] (setting [14]) turned out to be 20.
Regarding `CCN1CCN(C(=O)N[C@@H](C(=O)N[C@@H]2C(=O)N3C(C(=O)O)=C(CSc4nnnn4C)CS[C@H]23)c2ccc(O)cc2)C(=O)C1=O` [Cefoperazone dihydrate], the fold induction at 50 µM in experiment [1] (setting [15]) is 0.9; in experiment [2] (setting [16]), 0.7; in experiment [3] (setting [17]), 2.1; in experiment [4] (setting [18]) it was 0.7; in experiment [5] (setting [19]) it was 5.2; in experiment [6] (setting [20]), 12. Moreover, the fold induction at 50 µM in experiment [7] (setting [21]) stood at 16.5.
Turning to `NCc1ccccc1CC(=O)N[C@@H]1C(=O)N2C(C(=O)O)=C(CSc3nnnn3CC(=O)O)CS[C@H]12` [Ceforanide], the fold induction at 50 µM in experiment [1] (setting [22]) is 1; in experiment [2] (setting [23]) it was 1.8; in experiment [3] (setting [24]), 3.1; in experiment [4] (setting [25]), 1.8; in experiment [5] (setting [26]) it was 1.2; in experiment [6] (setting [27]), 1.9. Moreover, the fold induction at 50 µM in experiment [7] (setting [28]) turned out to be 12.2.
On to `CO/N=C(\C(=O)N[C@@H]1C(=O)N2C(C(=O)O)=C(COC(C)=O)CS[C@H]12)c1csc(N)n1` [Cefotaxime sodium salt], for which the fold induction at 50 µM amounted to 1 in experiment [1] (setting [15]); 2.9 in experiment [2] (setting [16]); 5.5 in experiment [3] (setting [17]); 2.2 in experiment [4] (setting [18]); 10 in experiment [5] (setting [19]); 22 in experiment [6] (setting [20]). Also, in experiment [7] (setting [21]), the fold induction at 50 µM was 21.9.
`CO[C@@]1(NC(=O)C2SC(=C(C(N)=O)C(=O)O)S2)C(=O)N2C(C(=O)O)=C(CSc3nnnn3C)CS[C@@H]21` (stereo partly shown) [Cefotetan]: the fold induction at 50 µM in experiment [1] (setting [22]) worked out at 1.2; in experiment [2] (setting [23]), 2.5; in experiment [3] (setting [24]), 8.4; in experiment [4] (setting [25]) it was 2; in experiment [5] (setting [26]) it was 1.2; in experiment [6] (setting [27]), 25.3. In experiment [7] (setting [28]), the fold induction at 50 µM came to 22.1.
With `CN(C)CCn1nnnc1SCC1=C(C(=O)O)N2C(=O)[C@@H](NC(=O)Cc3csc(N)n3)[C@H]2SC1` [Cefotiam hydrochloride], the fold induction at 50 µM was found to be 0.9 in experiment [1] (setting [15]); 2.3 in experiment [2] (setting [16]); 7.8 in experiment [3] (setting [17]); 0.9 in experiment [4] (setting [18]); 0.6 in experiment [5] (setting [19]); 15.6 in experiment [6] (setting [20]). Further, in experiment [7] (setting [21]), the fold induction at 50 µM came out at 23.9.
On to `CO[C@@]1(NC(=O)Cc2cccs2)C(=O)N2C(C(=O)O)=C(COC(N)=O)CS[C@@H]21` [Cefoxitin sodium salt], for which the fold induction at 50 µM in experiment [1] (setting [29]) was 1; in experiment [2] (setting [30]) it was 3.4; in experiment [3] (setting [31]) it was 3.2; in experiment [4] (setting [32]), 1.3; in experiment [5] (setting [33]), 0.8; in experiment [6] (setting [34]) it was 1.2. For the same compound, in experiment [7] (setting [35]), the fold induction at 50 µM is 20.1.
Regarding `NC(=O)c1cc[n+](CC2=C(C(=O)O)N3C(=O)[C@@H](NC(=O)[C@@H](c4ccccc4)S(=O)(=O)[O-])[C@H]3SC2)cc1` [Cefsulodin sodium salt], the fold induction at 50 µM came to 0.9 in experiment [1] (setting [29]); 1 in experiment [2] (setting [30]); 0.7 in experiment [3] (setting [31]); 1.1 in experiment [4] (setting [32]); 8.6 in experiment [5] (setting [33]); 0.9 in experiment [6] (setting [34]). The fold induction at 50 µM in experiment [7] (setting [35]) stood at 0.9.
Consider `CC(C)(O/N=C(\C(=O)N[C@@H]1C(=O)N2C(C(=O)[O-])=C(C[n+]3ccccc3)CS[C@H]12)c1csc(N)n1)C(=O)O` [Ceftazidime pentahydrate], for which the fold induction at 50 µM worked out at 0.9 in experiment [1] (planktonic E. faecium, cutoff for positive-scoring molecules 3-fold increase, read-out: AK-based Prestwick Library Screening Results, E. faecium (increase in extracellular AK activity)); 0.4 in experiment [2] (planktonic S. aureus, cutoff for positive-scoring molecules 3-fold increase, read-out: AK-based Prestwick Library Screening Results, S. aureus (increase in extracellular AK activity)); 3.2 in experiment [3] (planktonic K. pneumoniae, cutoff for positive-scoring molecules 3-fold increase, read-out: AK-based Prestwick Library Screening Results, K. pneumoniae (increase in extracellular AK activity)); 0.5 in experiment [4] (planktonic A. baumannii, cutoff for positive-scoring molecules 3-fold increase, read-out: AK-based Prestwick Library Screening Results, A. baumannii (increase in extracellular AK activity)); 7.8 in experiment [5] (planktonic P. aeruginosa, cutoff for positive-scoring molecules 3-fold increase, read-out: AK-based Prestwick Library Screening Results, P. aeruginosa (increase in extracellular AK activity)); 12.9 in experiment [6] (planktonic E. cloacae, cutoff for positive-scoring molecules 3-fold increase, read-out: AK-based Prestwick Library Screening Results, E. cloacae (increase in extracellular AK activity)). Besides, in experiment [7] (planktonic E. coli, cutoff for positive-scoring molecules 3-fold increase, read-out: AK-based Prestwick Library Screening Results, E. coli (increase in extracellular AK activity)), the fold induction at 50 µM amounted to 11.5.
As for `CO/N=C(\C(=O)N[C@@H]1C(=O)N2C(C(=O)O)=C(COC(N)=O)CS[C@H]12)c1ccco1` [Cefuroxime sodium salt], the fold induction at 50 µM in experiment [1] (setting [8]) stood at 1; in experiment [2] (setting [9]), 3.4; in experiment [3] (setting [10]), 2.4; in experiment [4] (setting [11]), 1.4; in experiment [5] (setting [12]), 1.6; in experiment [6] (setting [13]), 1.6. The fold induction at 50 µM in experiment [7] (setting [14]) came to 12.1.
